Experiments:
beet armyworm = experiment: Topical application, beet armyworm; format: in vivo, Spodoptera exigua; details: BAW
Experimental: (§1) Topical Application: The compounds of this invention were tested for insecticidal activity against various insect species selected from southern armyworm (Spodoptera eridania), Mexican bean beetle, (Epilachna varivestis), milkweed bug (Oncopeltus fasciatus), and cabbage looper (Tricoplusia ni) by applying to the second or third dorsal thoracic segment of each larvae a one microliter droplet containing 5 mg/mL of test compound in acetone (5000 ng/insect). The test was allowed to stand 24 hours after application and was then read to determine the percent kill.
(§2) To determine the LD50 of the compounds, the topical application test was repeated by applying various amounts of toxicant. Also included among the species tested against for this determination were tobacco budworm (Heliothis virescens), beet armyworm (Spodoptera exigua), and boll weevil (Anthonomus grandis).

milkweed bug [1] = experiment: Topical application, milkweed bug; format: in vivo, Oncopeltus fasciatus; details: MWB; for Topical % Kill @ 5000 ng/insect: 24 hours
Experimental: as §1, §2

southern armyworm [2] = experiment: Topical application, southern armyworm; format: in vivo, Spodoptera eridania; details: SAW; for Topical % Kill @ 5000 ng/insect: 24 hours
Experimental: as §1, §2

Mexican bean beetle [3] = experiment: Topical application, Mexican bean beetle; format: in vivo, Epilachna varivestis; details: MBB; for Topical % Kill @ 5000 ng/insect: 24 hours
Experimental: as §1, §2

twospotted spider mite = experiment: Foliar application, twospotted spider mite; format: in vivo; details: Tetranychus urticae, TSM, foliar, 48 hours, read-out: Foliar % Kill (ppm)
Experimental: (§3) Foliar Application: The activity of some of the compounds of the invention against various test species selected from pea aphid (Acyrthosiphon pisum), twospotted spider mite (Tetranychus urticae), southern armyworm (Spodoptera eridania), Mexican bean beetle (Epilachna varivestis), and cabbage looper (Tricoplusia ni) was determined by foliar application of the test compound. The test materials were formulated as aqueous solutions containing 10% acetone and 0.25% acetylphenoxypolyethoxyethanol. Activity against pea aphid was determined on English fava bean plants the leaves of which were sprayed to runoff with various concentrations of test solution prior to infestation with adult aphids. Activity against twospotted spider mite was evaluated on pinto bean plants whose leaves were sprayed to runoff with various concentrations of test solution after infestation with adult mites. Activity against the remaining species was evaluated on pinto bean plants whose leaves were sprayed to runoff with various concentrations of test solution before infestation with the appropriate immature insects. Mortality was read approximately 48 hours after treatment.

pea aphid = experiment: Foliar application, pea aphid; format: in vivo; details: Acyrthosiphon pisum, PA, foliar, 48 hours, read-out: Foliar % Kill (ppm)
Experimental: as §3

cabbage looper [4] = experiment: Topical application, cabbage looper; format: in vivo, Tricoplusia ni; details: CL
Experimental: as §1, §2

boll weevil = experiment: Topical application, boll weevil; format: in vivo, Anthonomus grandis; details: BW
Experimental: as §1, §2

cabbage looper [5] = experiment: Foliar application, cabbage looper; format: in vivo, Tricoplusia ni; details: Trichoplusia ni, CL, 48 hours, read-out: Foliar % Kill (ppm)
Experimental: as §3

tobacco budworm = experiment: Topical application, tobacco budworm; format: in vivo, Heliothis virescens; details: TBW
Experimental: as §1, §2

Mexican bean beetle [6] = experiment: Foliar application, Mexican bean beetle; format: in vivo; details: Epilachna varivestis, MBB, foliar, 48 hours, read-out: Foliar % Kill (ppm)
Experimental: as §3

southern armyworm [7] = experiment: Foliar application, southern armyworm; format: in vivo; details: Spodoptera eridania, SAW, foliar, 48 hours, read-out: Foliar % Kill (ppm)
Experimental: as §3

milkweed bug [8] = experiment: Foliar application, milkweed bug; format: in vivo; details: Oncopeltus fasciatus, MWB, 48 hours, read-out: Foliar % Kill (ppm)

In the case of CC1(C)[C@H](C=C(Cl)Cl)[C@@H]1C(=O)OCc1cccc(-c2ccsc2)c1 (relative stereo) [d, 3-(3-thienyl)phenylmethyl cis-3-(2,2-dichloroethenyl)-2,2-dimethylcyclopropanecarboxylate], the “Topical LD50” value (beet armyworm) is reported as 3010 ng/insect, the “Topical LD50” value (milkweed bug [1]) is reported as 1137 ng/insect and the “Topical % Kill @ 5000 ng/insect” value (milkweed bug [1]) is reported as 95%. For the same compound, the “Topical LD50” value (southern armyworm [2]) was 57 ng/insect, the “Topical % Kill @ 5000 ng/insect” value (southern armyworm [2]) was 100% and the “Topical LD50” value (Mexican bean beetle [3]) was 73 ng/insect. The “Topical % Kill @ 5000 ng/insect” value (Mexican bean beetle [3]) was 100%, the mortality at 500 ppm (twospotted spider mite) was 100% and the mortality at 500 ppm (pea aphid) was 100%. The “Topical LD50” value (cabbage looper [4]) was 2408 ng/insect.

In the case of Cc1c(COC(=O)[C@H]2[C@@H](C=C(Cl)Cl)C2(C)C)cccc1-c1cccs1 (relative stereo) [g, [2-methyl-3-(2-thienyl)phenyl]methyl cis-3-(2,2-dichloroethenyl)-2,2-dimethylcyclopropanecarboxylate], the “Topical LD50” value (boll weevil) is reported as 21 ng/insect, the mortality at 80 ppm (cabbage looper [5]; 80 ppm) is reported as 100% and the “Topical LD50” value (tobacco budworm) is reported as 107 ng/insect. The mortality at 512 ppm (Mexican bean beetle [6]) was 100%, the “Topical LD50” value (milkweed bug [1]) was 234 ng/insect and the “Topical % Kill @ 5000 ng/insect” value (milkweed bug [1]) was 100%. For the same compound, the “Topical LD50” value (southern armyworm [2]) was 51 ng/insect, the “Topical % Kill @ 5000 ng/insect” value (southern armyworm [2]) was 100% and the “Topical LD50” value (Mexican bean beetle [3]) was 8 ng/insect. For the same compound, the mortality at 64 ppm (twospotted spider mite; 64 ppm) was 0%, the mortality at 512 ppm (pea aphid) was 100% and the “Topical LD50” value (cabbage looper [4]) was 0.5 ng/insect. The mortality at 512 ppm (southern armyworm [7]) was 100%.

In the case of Cc1c(COC(=O)[C@H]2[C@@H](C=C(Cl)C(F)(F)F)C2(C)C)cccc1-c1cccs1 (relative stereo) [e, [2-methyl-3-(2-thienyl)phenyl]-methyl cis-3-(2-chloro-3,3,3-trifluoro-1-propenyl)-2,2-dimethylcyclopropanecarboxylate], the “Topical LD50” value (boll weevil) is reported as 11 ng/insect, the mortality at 24 ppm (cabbage looper [5]; 24 ppm) is reported as 95% and the “Topical LD50” value (tobacco budworm) is reported as 43 ng/insect. The “Topical LD50” value (milkweed bug [1]) was 72 ng/insect, the “Topical % Kill @ 5000 ng/insect” value (milkweed bug [1]) was 100% and the mortality at 512 ppm (milkweed bug [8]) was 100%. For the same compound, the “Topical LD50” value (southern armyworm [2]) was 23 ng/insect, the “Topical % Kill @ 5000 ng/insect” value (southern armyworm [2]) was 100% and the “Topical LD50” value (Mexican bean beetle [3]) was 7 ng/insect. For the same compound, the “Topical % Kill @ 5000 ng/insect” value (Mexican bean beetle [3]) was 100%, the mortality at 512 ppm (twospotted spider mite) was 100% and the mortality at 512 ppm (pea aphid) was 100%. For the same compound, the “Topical LD50” value (cabbage looper [4]) was 74 ng/insect and the mortality at 512 ppm (southern armyworm [7]) was 100%.

With Cc1c(COC(=O)[C@@H]2[C@H](C=C(Cl)Cl)C2(C)C)cccc1-c1cccs1 [h, [2-methyl-3-(2-thienyl)phenyl]-methyl 1R-cis-3-(2,2-dichloroethenyl)-2,2-dimethylcyclopropanecarboxylate] the mortality at 16 ppm (cabbage looper [5]; 16 ppm) was 90%, the “Topical LD50” value (tobacco budworm) was 38 ng/insect and the mortality at 16 ppm (Mexican bean beetle [6]; 16 ppm) was 95%. The “Topical LD50” value (milkweed bug [1]) was 64 ng/insect, the “Topical % Kill @ 5000 ng/insect” value (milkweed bug [1]) was 100% and the “Topical LD50” value (southern armyworm [2]) was 22 ng/insect. For the same compound, the “Topical LD50” value (Mexican bean beetle [3]) was 9 ng/insect, the “Topical % Kill @ 5000 ng/insect” value (Mexican bean beetle [3]) was 100% and the mortality at 500 ppm (twospotted spider mite) was 100%. For the same compound, the mortality at 500 ppm (pea aphid) was 100%, the “Topical LD50” value (cabbage looper [4]) was 136 ng/insect and the mortality at 6.5 ppm (southern armyworm [7]; 6.5 ppm) was 100%.

For Cc1c(COC(=O)[C@H]2[C@@H](C=C(Br)Br)C2(C)C)cccc1-c1cccs1 (relative stereo) [i, [2-methyl-3-(2-thienyl)phenyl]-methyl cis-3-(2,2-dibromoethenyl)-2,2-dimethylcyclopropanecarboxylate], the mortality at 32 ppm (cabbage looper [5]; 32 ppm) was 70%, the “Topical LD50” value (tobacco budworm) was 177 ng/insect and the mortality at 32 ppm (Mexican bean beetle [6]; 32 ppm) was 90%. For the same compound, the “Topical LD50” value (milkweed bug [1]) was 132 ng/insect, the “Topical % Kill @ 5000 ng/insect” value (milkweed bug [1]) was 100% and the “Topical LD50” value (southern armyworm [2]) was 55 ng/insect. The “Topical % Kill @ 5000 ng/insect” value (southern armyworm [2]) was 100%, the “Topical LD50” value (Mexican bean beetle [3]) was 20 ng/insect and the “Topical % Kill @ 5000 ng/insect” value (Mexican bean beetle [3]) was 100%. The mortality at 500 ppm (twospotted spider mite) was 90%, the mortality at 500 ppm (pea aphid) was 100% and the “Topical LD50” value (cabbage looper [4]) was 371 ng/insect. It also gave a mortality at 16 ppm (southern armyworm [7]; 16 ppm) of 95%.

Cc1c(COC(=O)[C@H]2[C@H](C=C(Cl)Cl)C2(C)C)cccc1-c1cccs1 (relative stereo) [f, [2-methyl-3-(2-thienyl)phenyl]methyl trans-3-(2,2-dichloroethenyl)-2,2-dimethylcyclopropanecarboxylate] was tested, and the mortality at 120 ppm (cabbage looper [5]; 120 ppm) was 100%, the mortality at 512 ppm (Mexican bean beetle [6]) was 100% and the “Topical LD50” value (milkweed bug [1]) was 238 ng/insect. The “Topical % Kill @ 5000 ng/insect” value (milkweed bug [1]) was 100%, the “Topical LD50” value (southern armyworm [2]) was 155 ng/insect and the mortality at 512 ppm (twospotted spider mite) was 71%. It also gave a mortality at 512 ppm (pea aphid) of 100% and a mortality at 512 ppm (southern armyworm [7]) of 100%.

— patent US4426524A, “Heterocyclic substituted benzyl alcohol, insecticidal ester derivatives, and intermediates” (priority 1982, dated 1984)
